According to ChEMBL document CHEMBL1149774, “Synthesis of N-(5,7-diamino-3-phenyl-quinoxalin-2-yl)-3,4,5-substituted anilines and N-[4[(5,7-diamino-3-phenylquinoxalin-2-yl)amino]benzoyl]-l-glutamic acid diethyl ester: evaluation of in vitro anti-cancer and anti-folate activities” (Eur J Med Chem, 2008):

Key:
Thymidylate synthase = Thymidylate synthase (Homo sapiens, UniProt P04818)
Description: Inhibition of human thymidylate synthase

RXF 393 = experiment: Growth inhibition of human RXF393 cells after 48 hrs by SRB staining method; assay type: functional; details: RXF 393, 48 h
CAKI-1 = experiment: Growth inhibition of human CAKI1 cells after 48 hrs by SRB staining method; assay type: functional; details: CAKI-1, 48 h
SNB-75 = experiment: Growth inhibition of human SNB75 cells after 48 hrs by SRB staining method; assay type: functional; details: SNB-75, 48 h
ACHN = experiment: Growth inhibition of human ACHN cells after 48 hrs by SRB staining method; assay type: functional
HCC 2998 = experiment: Growth inhibition of human HCC2998 cells after 48 hrs by SRB staining method; assay type: functional; details: HCC 2998, 48 h
COLO 205 = experiment: Growth inhibition of human COLO205 cells after 48 hrs by SRB staining method; assay type: functional; details: COLO 205, 48 h
Dihydrofolate reductase = target: T1, Dihydrofolate reductase (Homo sapiens, UniProt P00374); experiment: Inhibition of human dihydrofolate reductase
T1 sequence (P00374 whole entry): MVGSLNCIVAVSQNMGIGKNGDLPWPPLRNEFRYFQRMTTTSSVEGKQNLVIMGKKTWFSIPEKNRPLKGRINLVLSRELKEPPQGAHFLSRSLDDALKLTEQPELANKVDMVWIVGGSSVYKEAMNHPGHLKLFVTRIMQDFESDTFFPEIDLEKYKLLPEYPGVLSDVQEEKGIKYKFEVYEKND

CCRF-CEM = experiment: Growth inhibition of human CCRF-CEM cells after 48 hrs by SRB staining method; assay type: functional
HT-29 = experiment: Growth inhibition of human HT29 cells after 48 hrs by SRB staining method; assay type: functional; details: HT-29, 48 h
UACC-62 = experiment: Growth inhibition of human UACC62 cells after 48 hrs by SRB staining method; assay type: functional; details: UACC-62, 48 h
UACC-257 = experiment: Growth inhibition of human UACC257 cells after 48 hrs by SRB staining method; assay type: functional; details: UACC-257, 48 h
SF-268 = experiment: Growth inhibition of human SF268 cells after 48 hrs by SRB staining method; assay type: functional; details: SF-268, 48 h
NCI/ADR-RES = experiment: Growth inhibition of human NCI/ADR-RES cells after 48 hrs by SRB staining method; assay type: functional
IGROV-1 = experiment: Growth inhibition of human IGROV1 cells after 48 hrs by SRB staining method; assay type: functional; details: IGROV-1, 48 h
[1] = Growth inhibition of human HS 578T cells after 48 hrs by SRB staining method; assay type: functional
SNB-19 = experiment: Growth inhibition of human SNB19 cells after 48 hrs by SRB staining method; assay type: functional; details: SNB-19, 48 h
M14 = experiment: Growth inhibition of human M14 cells after 48 hrs by SRB staining method; assay type: functional; details: M14, 48 h
MDA-N = experiment: Growth inhibition of human MDA-N cells after 48 hrs by SRB staining method; assay type: functional
HL-60 = experiment: Growth inhibition of human HL60 cells after 48 hrs by SRB staining method; assay type: functional; details: HL-60, 48 h
T47D = experiment: Growth inhibition of human T47D cells after 48 hrs by SRB staining method; assay type: functional
NCI-H226 = experiment: Growth inhibition of human NCI-H226 cells after 48 hrs by SRB staining method; assay type: functional; details: NCI-H226, 48 h
MDA-MB-435 = experiment: Growth inhibition of human MDA-MB-435 cells after 48 hrs by SRB staining method; assay type: functional; details: MDA-MB-435, 48 h
K562 = experiment: Growth inhibition of human K562 cells after 48 hrs by SRB staining method; assay type: functional; details: K562, 48 h
DU-145 = experiment: Growth inhibition of human DU145 cells after 48 hrs by SRB staining method; assay type: functional; details: DU-145, 48 h
TK-10 = experiment: Growth inhibition of human TK10 cells after 48 hrs by SRB staining method; assay type: functional; details: TK-10, 48 h
[2] = read-out: pLC50 (the source's name) (converted)

Chain of Thymidylate synthase (P04818 whole entry): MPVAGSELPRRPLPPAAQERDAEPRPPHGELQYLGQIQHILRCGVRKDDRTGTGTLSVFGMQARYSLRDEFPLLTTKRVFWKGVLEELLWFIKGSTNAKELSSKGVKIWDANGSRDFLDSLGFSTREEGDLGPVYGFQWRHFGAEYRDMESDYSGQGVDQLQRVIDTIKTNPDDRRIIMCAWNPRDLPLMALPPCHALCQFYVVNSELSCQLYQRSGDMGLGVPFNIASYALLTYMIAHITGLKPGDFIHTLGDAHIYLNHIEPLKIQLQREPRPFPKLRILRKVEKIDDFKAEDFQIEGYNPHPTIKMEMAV

For COc1ccc(Nc2nc3cc(N)cc(N)c3nc2-c2ccccc2)cc1, which Ki (Thymidylate synthase) is on record?
The Ki was 6 µM.

And the GI50 (RXF 393)?
Its GI50 is 11 µM.

And the CC50 (RXF 393; [2])?
The CC50 was 53.7 µM.

And the TGI (RXF 393; read-out: pTGI (converted))?
Its TGI is 24 µM.

And the GI50 (CAKI-1)?
Its GI50 is 35.5 µM.

What about the CC50 (CAKI-1; [2]) of the same molecule?
The CC50 was > 100 µM.

And the TGI (CAKI-1; read-out: pTGI (converted))?
The TGI was > 100 µM.

And the GI50 (SNB-75)?
Its GI50 is 14.5 µM.

What about the LC50 (SNB-75) of the same molecule?
The LC50 was > 100 µM.

And the TGI (SNB-75; read-out: pTGI (converted))?
The TGI was 42.7 µM.

And the GI50 (ACHN)?
Its GI50 is 15.1 µM.

And the CC50 (ACHN; [2])?
Its CC50 is > 100 µM.

And the TGI (ACHN; read-out: pTGI (converted))?
The TGI was 43.7 µM.

And the GI50 (HCC 2998)?
Its GI50 is 28.2 µM.

And the LC50 (HCC 2998)?
The LC50 was > 100 µM.

What about the TGI (HCC 2998; read-out: pTGI (converted)) of the same molecule?
Its TGI is > 100 µM.

What about the GI50 (COLO 205) of the same molecule?
The GI50 was 15.8 µM.

What about the LC50 (COLO 205) of the same molecule?
The LC50 was 53.7 µM.

And the TGI (COLO 205; read-out: pTGI (converted))?
Its TGI is 29.5 µM.

What about the Ki (Dihydrofolate reductase) of the same molecule?
The Ki was 1800 nM.

And the GI50 (CCRF-CEM)?
The GI50 was 12 µM.

What about the CC50 (CCRF-CEM; [2]) of the same molecule?
The CC50 was > 100 µM.

And the TGI (CCRF-CEM; read-out: pTGI (converted))?
Its TGI is > 100 µM.

And the GI50 (HT-29)?
The GI50 was 24 µM.

What about the LC50 (HT-29) of the same molecule?
Its LC50 is 89.1 µM.

And the TGI (HT-29; read-out: pTGI (converted))?
The TGI was 42.7 µM.

And the GI50 (UACC-62)?
The GI50 was 17 µM.

And the LC50 (UACC-62)?
The LC50 was 55 µM.

What about the TGI (UACC-62; read-out: pTGI (converted)) of the same molecule?
The TGI was 30.2 µM.

And the GI50 (UACC-257)?
The GI50 was 15.1 µM.

What about the LC50 (UACC-257) of the same molecule?
Its LC50 is 52.5 µM.

And the TGI (UACC-257; read-out: pTGI (converted))?
Its TGI is 27.5 µM.

What about the GI50 (SF-268) of the same molecule?
The GI50 was 12.9 µM.

And the CC50 (SF-268; [2])?
Its CC50 is 72.4 µM.

What about the TGI (SF-268; read-out: pTGI (converted)) of the same molecule?
Its TGI is 30.9 µM.

And the GI50 (NCI/ADR-RES)?
The GI50 was 19.1 µM.

What about the CC50 (NCI/ADR-RES; [2]) of the same molecule?
The CC50 was > 100 µM.

What about the TGI (NCI/ADR-RES; read-out: pTGI (converted)) of the same molecule?
Its TGI is 44.7 µM.

What about the GI50 (IGROV-1) of the same molecule?
The GI50 was 15.5 µM.

What about the LC50 (IGROV-1) of the same molecule?
Its LC50 is 83.2 µM.

And the TGI (IGROV-1; read-out: pTGI (converted))?
The TGI was 35.5 µM.

And the GI50 [1]?
Its GI50 is 14.5 µM.

What about the CC50 [1, 2] of the same molecule?
The CC50 was > 100 µM.

What about the TGI ([1]; read-out: pTGI (converted)) of the same molecule?
The TGI was 46.8 µM.

And the GI50 (SNB-19)?
Its GI50 is 33.9 µM.

What about the LC50 (SNB-19) of the same molecule?
The LC50 was > 100 µM.

What about the TGI (SNB-19; read-out: pTGI (converted)) of the same molecule?
The TGI was > 100 µM.

And the GI50 (M14)?
Its GI50 is 17.8 µM.

And the LC50 (M14)?
Its LC50 is 75.9 µM.

What about the TGI (M14; read-out: pTGI (converted)) of the same molecule?
The TGI was 36.3 µM.

What about the GI50 (MDA-N) of the same molecule?
Its GI50 is 21.4 µM.

What about the CC50 (MDA-N; [2]) of the same molecule?
Its CC50 is 60.3 µM.

What about the TGI (MDA-N; read-out: pTGI (converted)) of the same molecule?
The TGI was 36.3 µM.

And the GI50 (HL-60)?
The GI50 was 34.7 µM.

And the CC50 (HL-60; [2])?
Its CC50 is > 100 µM.

And the TGI (HL-60; read-out: pTGI (converted))?
Its TGI is > 100 µM.

What about the GI50 (T47D) of the same molecule?
Its GI50 is 17.8 µM.

And the CC50 (T47D; [2])?
Its CC50 is > 100 µM.

And the TGI (T47D; read-out: pTGI (converted))?
The TGI was 53.7 µM.

What about the GI50 (NCI-H226) of the same molecule?
The GI50 was 24 µM.

What about the LC50 (NCI-H226) of the same molecule?
The LC50 was > 100 µM.

What about the TGI (NCI-H226; read-out: pTGI (converted)) of the same molecule?
Its TGI is 97.7 µM.

And the GI50 (MDA-MB-435)?
The GI50 was 16.6 µM.

What about the CC50 (MDA-MB-435; [2]) of the same molecule?
Its CC50 is 55 µM.

And the TGI (MDA-MB-435; read-out: pTGI (converted))?
The TGI was 30.2 µM.

What about the GI50 (K562) of the same molecule?
Its GI50 is 29.5 µM.

What about the CC50 (K562; [2]) of the same molecule?
The CC50 was > 100 µM.

What about the TGI (K562; read-out: pTGI (converted)) of the same molecule?
Its TGI is > 100 µM.

What about the GI50 (DU-145) of the same molecule?
Its GI50 is 38.9 µM.

And the CC50 (DU-145; [2])?
The CC50 was > 100 µM.

And the TGI (DU-145; read-out: pTGI (converted))?
Its TGI is > 100 µM.

What about the GI50 (TK-10) of the same molecule?
Its GI50 is 16.6 µM.

And the CC50 (TK-10; [2])?
Its CC50 is > 100 µM.

And the TGI (TK-10; read-out: pTGI (converted))?
The TGI was 42.7 µM.
